# Measured values published in publication PMC9469208 (Journal of Medicinal Chemistry, 2022).
# Where two headings read alike, the source gives them in different places.
# Experiments:
# GlyRA1 = biological target: T1, GlyRA1 (Homo sapiens, UniProt P23415); type: cell-based
# T1 construct: purchased Cerep (Eurofins), Poitiers, France; Promega P450-Glo; in-house COS-7 uptake assays
# T1 sequence (P23415 29-457): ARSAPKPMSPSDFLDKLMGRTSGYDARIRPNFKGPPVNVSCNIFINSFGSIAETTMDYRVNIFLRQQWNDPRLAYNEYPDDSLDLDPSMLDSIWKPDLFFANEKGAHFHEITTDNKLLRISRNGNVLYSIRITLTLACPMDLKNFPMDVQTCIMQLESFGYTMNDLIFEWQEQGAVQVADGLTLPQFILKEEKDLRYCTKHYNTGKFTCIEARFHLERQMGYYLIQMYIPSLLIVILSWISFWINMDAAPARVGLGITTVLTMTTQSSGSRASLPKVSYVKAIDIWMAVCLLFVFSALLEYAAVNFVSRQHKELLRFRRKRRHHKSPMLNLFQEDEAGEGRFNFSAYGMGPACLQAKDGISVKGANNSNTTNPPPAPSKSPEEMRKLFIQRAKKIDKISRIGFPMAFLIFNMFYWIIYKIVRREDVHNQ
# [1] = system: motor coordination of mice; conditions: mouse, in vivo, ip; cited from earlier work
# [2] = system: maximal electroshock seizures in mice; conditions: mouse, in vivo; cited from earlier work
# [3] = system: 6 Hz (32 mA) seizures in mice; conditions: mouse, in vivo; cited from earlier work
# hCav3.2 = hCav3.2 (Homo sapiens, UniProt O95180); assay: cell-based
# Chain of hCav3.2 (O95180 whole entry): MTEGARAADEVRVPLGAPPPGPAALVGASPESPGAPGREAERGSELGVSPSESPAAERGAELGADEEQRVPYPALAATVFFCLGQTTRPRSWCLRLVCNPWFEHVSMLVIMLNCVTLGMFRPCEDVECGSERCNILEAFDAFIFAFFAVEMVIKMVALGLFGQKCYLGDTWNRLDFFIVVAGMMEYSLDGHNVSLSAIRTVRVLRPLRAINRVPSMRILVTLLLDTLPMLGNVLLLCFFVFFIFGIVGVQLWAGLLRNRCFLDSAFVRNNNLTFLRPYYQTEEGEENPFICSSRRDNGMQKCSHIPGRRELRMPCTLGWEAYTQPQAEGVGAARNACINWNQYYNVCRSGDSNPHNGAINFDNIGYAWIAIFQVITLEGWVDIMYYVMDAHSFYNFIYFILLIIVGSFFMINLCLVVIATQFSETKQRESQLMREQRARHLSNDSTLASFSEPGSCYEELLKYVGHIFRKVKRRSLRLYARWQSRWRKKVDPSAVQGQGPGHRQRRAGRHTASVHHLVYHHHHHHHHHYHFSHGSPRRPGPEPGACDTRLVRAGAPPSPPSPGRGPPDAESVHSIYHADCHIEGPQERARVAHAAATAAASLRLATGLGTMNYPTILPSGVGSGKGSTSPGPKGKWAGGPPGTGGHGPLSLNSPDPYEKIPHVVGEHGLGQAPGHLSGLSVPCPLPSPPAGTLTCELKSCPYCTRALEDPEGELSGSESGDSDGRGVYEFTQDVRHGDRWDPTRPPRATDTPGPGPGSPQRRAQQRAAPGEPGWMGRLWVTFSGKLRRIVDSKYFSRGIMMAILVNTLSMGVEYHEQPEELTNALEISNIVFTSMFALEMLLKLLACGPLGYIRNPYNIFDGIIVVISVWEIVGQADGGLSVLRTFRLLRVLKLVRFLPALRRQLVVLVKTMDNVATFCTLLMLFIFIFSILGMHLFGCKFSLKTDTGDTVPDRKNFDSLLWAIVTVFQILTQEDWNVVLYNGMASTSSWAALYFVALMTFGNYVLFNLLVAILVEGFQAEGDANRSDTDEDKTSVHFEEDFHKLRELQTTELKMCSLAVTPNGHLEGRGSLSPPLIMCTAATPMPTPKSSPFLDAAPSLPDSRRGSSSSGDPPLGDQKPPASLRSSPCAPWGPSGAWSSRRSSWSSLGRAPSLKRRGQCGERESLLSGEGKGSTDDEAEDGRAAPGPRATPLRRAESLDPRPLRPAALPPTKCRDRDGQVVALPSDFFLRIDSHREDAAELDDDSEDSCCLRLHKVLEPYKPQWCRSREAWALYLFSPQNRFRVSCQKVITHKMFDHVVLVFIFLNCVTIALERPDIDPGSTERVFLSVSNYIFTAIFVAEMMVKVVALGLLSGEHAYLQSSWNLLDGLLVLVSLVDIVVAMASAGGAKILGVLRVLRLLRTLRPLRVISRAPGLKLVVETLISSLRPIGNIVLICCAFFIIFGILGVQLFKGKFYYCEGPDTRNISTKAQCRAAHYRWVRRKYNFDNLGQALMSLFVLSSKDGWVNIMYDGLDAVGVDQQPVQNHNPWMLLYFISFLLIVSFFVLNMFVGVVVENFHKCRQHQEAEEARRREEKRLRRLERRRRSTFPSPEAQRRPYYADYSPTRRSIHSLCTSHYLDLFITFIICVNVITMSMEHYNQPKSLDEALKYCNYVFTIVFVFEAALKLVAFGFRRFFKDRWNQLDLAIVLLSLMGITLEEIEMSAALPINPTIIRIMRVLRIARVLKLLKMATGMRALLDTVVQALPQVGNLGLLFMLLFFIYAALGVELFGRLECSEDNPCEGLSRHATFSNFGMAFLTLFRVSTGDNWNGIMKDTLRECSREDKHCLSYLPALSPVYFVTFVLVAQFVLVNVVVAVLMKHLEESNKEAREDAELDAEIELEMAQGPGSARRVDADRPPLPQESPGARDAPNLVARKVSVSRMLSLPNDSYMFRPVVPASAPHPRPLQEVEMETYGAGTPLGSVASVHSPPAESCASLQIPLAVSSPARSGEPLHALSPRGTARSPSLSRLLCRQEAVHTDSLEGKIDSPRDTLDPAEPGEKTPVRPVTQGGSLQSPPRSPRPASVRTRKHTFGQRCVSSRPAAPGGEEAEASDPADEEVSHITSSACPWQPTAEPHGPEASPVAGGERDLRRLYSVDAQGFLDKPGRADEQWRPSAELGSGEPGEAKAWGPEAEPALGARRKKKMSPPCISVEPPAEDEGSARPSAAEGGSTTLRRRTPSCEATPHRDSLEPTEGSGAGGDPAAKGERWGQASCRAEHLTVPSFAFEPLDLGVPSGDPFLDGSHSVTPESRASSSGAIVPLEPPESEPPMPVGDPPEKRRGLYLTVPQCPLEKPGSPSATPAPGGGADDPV
# [4] = system: PTZ-induced seizures in mice; conditions: mouse, in vivo; cited from earlier work
# [5] = system: PTZ-induced kindling in mice; conditions: VPA 150 mg/kg i.p. (positive control)
smiles,measurement,setting,value
"NCC(=O)O [Glycine, reference compound]","GlyRA1 agonist, % Control, Mean",GlyRA1,89.99%
same,"GlyRA1 agonist, % Control, n1",GlyRA1,92.59%
same,"GlyRA1 agonist, % Control, n2",GlyRA1,87.38%
CC(C(=O)NCc1ccccc1F)N1C(=O)CCC1=O (stereo not shown) [II],TD50 (rotarod),[1],300.9 (256.7–352.6) mg/kg
"COC[C@@H](NC(C)=O)C(=O)NCc1ccccc1 [LCS, lacosamide]",ED50 (MES),[2],9.2 (8.5–10.0) mg/kg
same,ED50 (6 Hz 32 mA),[3],5.3 (3.5–7.8) mg/kg
"CC[C@@H](C(N)=O)N1CCCC1=O [LEV, levetiracetam]",ED50 (MES),[2],>500 mg/kg
"COCC(=O)O[C@]1(CCN(C)CCCc2nc3ccccc3[nH]2)CCc2cc(F)ccc2[C@@H]1C(C)C [Mibefradil, reference compound]",inhibition at 30 µM,"hCav3.2; read-out: hCav3.2 % Inhibition, Mean",95.5%
same,inhibition at 30 µM,"hCav3.2; read-out: hCav3.2 % Inhibition, n1",96.1%
same,inhibition at 30 µM,"hCav3.2; read-out: hCav3.2 % Inhibition, n2",94.8%
"CCCC(CCC)C(=O)O [VPA, valproic acid]",ED50 (6 Hz 32 mA),[3],130.6 (117.6–145.2) mg/kg
same,ED50 (scPTZ),[4],239.4 (209.2–274.1) mg/kg
same,effect on kindling development,[5],suppressed kindling development
